The values below come from patent publication US6632817B2, “Fluoromethoximino compounds” (priority 1997, dated 2003).

Data set [1] deals with Plasmopara viticola. The experiment in a line: Plasmopara test (grapevine)/protective. In kind it is in vivo. The following applies: Plasmopara viticola, 144 h, protective, application rate 100 g/ha, evaluation 6 days after inoculation, read-out: Efficacy in %. The protocol:
Plasmopara Test (Grapevine)/Protective
(§1) Solvent: 47 parts by weight of acetone
(§2) Emulsifier: 3 parts by weight of alkylaryl polyglycol ether
(§3) To produce a suitable preparation of active compound, 1 part by weight of active compound is mixed with the stated amounts of solvent and emulsifier, and the concentrate is diluted with water to the desired concentration.
To test for protective activity, young plants are sprayed with the preparation of active compound at the stated application rate. After the spray coating has dried on, the plants are inoculated with an aqueous spore suspension of Plasmopara viticola and then remain in an incubation cabin at approximately 20° C. and 100% relative atmospheric humidity for 1 day. The plants are subsequently placed in a greenhouse at approximately 21° C. and approximately 90% relative atmospheric humidity for 5 days. The plants are then moistened and placed in an incubation cabin for 1 day.
Evaluation is carried out 6 days after the inoculation. 0% means an efficacy which corresponds to that of the control, whereas an efficacy of 100% means that no infection is observed.

Data set [2] relates to Venturia inaequalis. The experiment in a line: Venturia test (apple)/protective. It counts as in vivo. The following applies: Venturia inaequalis, 288 h, protective, application rate 10 g/ha, evaluation 12 days after inoculation, read-out: Efficacy in %. The protocol: Venturia Test (Apple)/Protective
as §1, §2, §3
To test for protective activity, young plants are sprayed with the preparation of active compound at the stated application rate. After the spray coating has dried on, the plants are inoculated with an aqueous conidia suspension of the causative organism of apple scab Venturia inaequalis and then remain in an incubation cabin at approximately 20° C. and 100% relative atmospheric humidity for 1 day.
The plants are then placed in a greenhouse at approximately 21° C. and a relative atmospheric humidity of approximately 90%.
Evaluation is carried out 12 days after the inoculation. 0% means an efficacy which corresponds to that of the control, whereas an efficacy of 100% means that no infection is observed.

For data set [3], the system named is Puccinia recondita. The experiment in a line: Puccinia test (wheat)/protective. In kind it is in vivo. The following applies: Puccinia recondita, 240 h, protective, application rate 250 g/ha, evaluation 10 days after inoculation, read-out: Efficacy in %. The protocol: Puccinia Test (Wheat)/Protective
(§4) Solvent: 25 parts by weight of N,N-dimethylacetamide
(§5) Emulsifier: 0.6 part by weight of alkylaryl polyglycol ether
as §3
To test for protective activity, young plants are sprayed with the preparation of active compound at the stated application rate. After the spray coating has dried on, the plants are sprayed with a conidia suspension of Puccinia recondita. The plants remain in an incubation cabin at 20° C. and 100% relative atmospheric humidity for 48 hours.
The plants are then placed in a greenhouse at a temperature of approximately 20° C. and a relative atmospheric humidity of 80% to promote the development of rust pustules.
(§6) Evaluation is carried out 10 days after the inoculation. 0% means an efficacy which corresponds to that of the control, whereas an efficacy of 100% means that no infection is observed.

The subject of data set [4] is Puccinia recondite. The experiment in a line: Puccinia test (wheat)/curative. It counts as in vivo. Particulars: curative, application rate 250 g/ha, evaluation 10 days after inoculation. The protocol: Puccinia Test (Wheat)/Curative
as §4, §5, §3
To test for curative activity, young plants are sprayed with a conidia suspension of Puccinia recondite. The plants remain in an incubation cabin at 20° C. and 100% relative atmospheric humidity for 48 hours. The plants are subsequently sprayed with the preparation of active compound at the stated application rate.
The plants are placed in a greenhouse at a temperature of approximately 20° C. and a relative atmospheric humidity of approximately 80% to promote the development of rust pustules.
as §6

The nature of data set [5]: logP determination by HPLC (EEC Directive 79/831 Annex V. A8). The following applies: HPLC gradient method, acetonitrile/0.1% aqueous phosphoric acid. It counts as physicochemical. The protocol: The logP values are determined in accordance with EEC Directive 79/831 Annex V. A8 by HPLC (gradient method, acetonitrile/0.1% aqueous phosphoric acid).

A value given as a limit tells only on which side of the number the result lay.

`COC(=O)C(=NOCF)c1ccccc1Oc1ncnc(Oc2ccccc2Cl)c1F` [Example 1, methyl {2-[6-(2-chlorophenoxy)-5-fluoropyrimidin-4-yloxy]-phenyl}-fluoromethoxyimino-acetate] gave a melting point of 153 to 155 °C. In addition, the pest or weed control at 100 g/ha in data set [1] was ≥ 98%. Moreover, the pest or weed control at 10 g/ha in data set [2] was ≥ 99%. Moreover, the pest or weed control at 250 g/ha in data set [3] was ≥ 80%.
`CNC(=O)C(=NOCF)c1ccccc1Oc1ncnc(Oc2ccccc2Cl)c1F` [Example 2, 2-{2-[6-(2-chlorophenoxy)-5-fluoropyrimidin-4-yloxy]-phenyl}-2-fluoromethoxyimino-N-methylacetamide] returned a melting point of 128 to 129 °C. In addition, the pest or weed control at 100 g/ha in data set [1] was ≥ 98%. The Efficacy in % in data set [4] is 100%. The pest or weed control at 10 g/ha in data set [2] was ≥ 99%. Besides, the pest or weed control at 250 g/ha in data set [3] is ≥ 80%.
Consider `CNC(=O)/C(=N\OCF)c1ccccc1Oc1ncnc(Oc2cccc(Cl)c2C)c1F` [Example 4], for which, in data set [1], the pest or weed control at 100 g/ha is ≥ 98%. In data set [4], the Efficacy in % turned out to be 100%. This molecule also returned a chromatographic logP in data set [5] of 3.5. The pest or weed control at 10 g/ha in data set [2] is ≥ 99%.
For `CNC(=O)/C(=N\OCF)c1ccccc1Oc1ncnc(Oc2ccccc2OC(F)F)c1F` [Example 6], in data set [1], the pest or weed control at 100 g/ha is ≥ 98%. The Efficacy in % in data set [4] was 100%. In data set [5], this molecule registered a chromatographic logP of 2.9. Further, the pest or weed control at 10 g/ha in data set [2] was ≥ 99%. Further, the pest or weed control at 250 g/ha in data set [3] is ≥ 80%.
Turning to `CNC(=O)/C(=N\OCF)c1ccccc1Oc1ncnc(Oc2cccc(C)c2C)c1F` [Example 9], the pest or weed control at 100 g/ha in data set [1] was ≥ 98%. The molecule further showed a chromatographic logP in data set [5] of 3.3. The pest or weed control at 10 g/ha in data set [2] was ≥ 99%. Besides, the pest or weed control at 250 g/ha in data set [3] is ≥ 80%.
In the case of `CNC(=O)/C(=N\OCF)c1ccccc1Oc1ncnc(Oc2ccccc2C#N)c1F` [Example 10], in data set [1], the pest or weed control at 100 g/ha was ≥ 98%. Moreover, in data set [4], the Efficacy in % was found to be 100%. In data set [5], this molecule had a chromatographic logP of 2.8. Besides, the pest or weed control at 250 g/ha in data set [3] is ≥ 80%.
As to `CNC(=O)/C(=N\OCF)c1ccccc1Oc1ncnc(Oc2ccccc2C)c1F` [Example 11], in data set [1], the pest or weed control at 100 g/ha was ≥ 98%. Further, in data set [5], the chromatographic logP is 3. Besides, the pest or weed control at 10 g/ha in data set [2] is ≥ 99%. Further, the pest or weed control at 250 g/ha in data set [3] is ≥ 80%.
With `CNC(=O)/C(=N\OCF)c1ccccc1Oc1nc(-c2ccc(C(F)(F)F)cc2)ns1` [Example 19], the pest or weed control at 100 g/ha in data set [1] was ≥ 98%. This molecule also displayed a chromatographic logP in data set [5] of 3.7. In addition, the pest or weed control at 10 g/ha in data set [2] is ≥ 99%. Moreover, the pest or weed control at 250 g/ha in data set [3] is ≥ 80%.
Turning to `CNC(=O)/C(=N\OCF)c1ccccc1Oc1nc(-c2ccc(OC(F)(F)F)cc2)ns1` [Example 22], the pest or weed control at 100 g/ha in data set [1] was ≥ 98%. The Efficacy in % in data set [4] came to 100%. For the same molecule, the chromatographic logP in data set [5] came out at 3.8. For the same molecule, in data set [2], the pest or weed control at 10 g/ha is ≥ 99%. In addition, in data set [3], the pest or weed control at 250 g/ha was ≥ 80%.
In the case of `CNC(=O)/C(=N\OCF)c1ccccc1Oc1nc(-c2cccc(OC(F)(F)F)c2)ns1` [Example 23], in data set [1], the pest or weed control at 100 g/ha is ≥ 98%. For the same molecule, in data set [5], the chromatographic logP is 3.8. Also, in data set [2], the pest or weed control at 10 g/ha was ≥ 99%.
`CNC(=O)/C(=N\OCF)c1ccccc1Oc1nc(-c2ccc(OC(F)F)cc2)ns1` [Example 26]: in data set [1], the pest or weed control at 100 g/ha is ≥ 98%. Also, the chromatographic logP in data set [5] turned out to be 3.2. The pest or weed control at 10 g/ha in data set [2] was ≥ 99%. Moreover, in data set [3], the pest or weed control at 250 g/ha was ≥ 80%.
As to `CNC(=O)/C(=N\OCF)c1ccccc1Oc1nc(-c2cccc(C(F)(F)F)c2)ns1` [Example 28], the pest or weed control at 100 g/ha in data set [1] is ≥ 98%. The Efficacy in % in data set [4] turned out to be 100%. The same molecule registered a chromatographic logP in data set [5] of 3.6. The pest or weed control at 10 g/ha in data set [2] was ≥ 99%. Also, the pest or weed control at 250 g/ha in data set [3] is ≥ 80%.
As to `CNC(=O)C(=NOCF)c1ccccc1Oc1ncnc(Oc2ccccc2Cl)c1F` [drawing 98], in data set [4], the Efficacy in % worked out at 100%.
Still for that read-out and setting: then `CNC(=O)/C(=N\OCF)c1ccccc1Oc1ncnc(Oc2cccc(Cl)c2C)c1F` [drawing 99], with 100%.
In turn, `CNC(=O)/C(=N\OCF)c1ccccc1Oc1ncnc(Oc2ccccc2OC(F)F)c1F` [drawing 100] showed an Efficacy in % in data set [4] of 100%.
On the same count and under the same terms, the result for `CNC(=O)C(NOCF)c1ccccc1Oc1ncnc(Oc2ccccc2[N+](=O)[O-])c1F` (centres unmarked) [drawing 101] reads 100%; that for `CNC(=O)/C(=N\OCF)c1ccccc1Oc1ncnc(Oc2ccccc2C#N)c1F` [drawing 102], 100%.
As for `CNC(=O)/C(=N\OCF)c1ccccc1Oc1nc(-c2cccc(C(F)(F)F)c2)ns1` [drawing 103], in data set [4], the Efficacy in % amounted to 100%.
In data set [4], `CNC(=O)/C(=N\OCF)c1ccccc1Oc1nc(-c2ccc(OC(F)(F)F)cc2)ns1` [drawing 104] had an Efficacy in % of 100%.
In data set [4], `CNC(=O)/C(=N\OCF)c1ccccc1Oc1ncnc(Oc2ccccc2Cl)c1F` [drawing 105] showed an Efficacy in % of 100%.

For orientation: melting point means the temperature of the solid-liquid transition. One may read the chromatographic logP as lipophilicity estimated from chromatographic retention. Lower therefore signals lower lipophilicity.
